Experiments:
Format in all cases: cell-based
[1] = tested on: Escherichia coli; experiment: Variant Micromax assay of cell enlargement by low-dose mitomycin C after tobramycin (Example 8)
Description: As an example, two strains of Escherichia coli exponentially growing in Mueller-Hinton broth were incubated under four different conditions and then assayed. One strain was susceptible and the other resistant to the aminoglycoside tobramycin (an inhibitor of protein synthesis). For the purpose of rapidly distinguishing susceptible and non-susceptible strains to tobramycin each strain was incubated under four conditions.
A portion of each strain was incubated with tobramycin at 4 μg/ml for 90 minutes. As described previously, this dose is indicated by the CLSI as the breakpoint of susceptibility to tobramycin in the standard antibiogram based on microdilution. Another portion of both strains was incubated in Mitomycin C at 0.5 μg/ml for 60 minutes. Still another portion of each strain was incubated with tobramycin at 4 μg/ml for 30 minutes followed by mitomycin C at 0.5 μg/ml for 60 minutes, without removing the tobramycin. A final portion of both strains was not incubated with either antibiotic.
After the incubation, cells were processed using a variant Micromax technology to visualize any enlargement or not of the bacteria. Samples from cells from the culture were immersed in an agarose microgel on a slide, dried, stained with a highly sensitive fluorochrome for DNA like SYBR Gold and visualized under fluorescence microscopy to visualize cell shape and size. Images were similar those correspondent to the previous figure.

[2] = tested on: Pseudomonas aeruginosa; experiment: Variant Micromax assay of cell wall damage by meropenem after tobramycin (Example 5); details: for release of nucleoids (cell wall damage): tobramycin 4 μg/ml 15 min followed by meropenem 0.2 μg/ml 60 min
Description: As an exemplification of this principal, FIGS. 19-24 illustrates assays of two strains of Pseudomonas aeruginosa exponentially growing in Mueller-Hinton broth. Both strains were both susceptible to the β-lactam meropenem, which inhibits peptidoglycan synthesis. One strain was susceptible (FIGS. 19-21) and the other resistant (FIGS. 22-24) to the aminoglycoside tobramycin (inhibitor of protein synthesis).
For the purpose of rapidly distinguishing susceptible and resistant (i.e. non-susceptible) strains to tobramycin each strain was subjected to four treatments. A portion of each strain was incubated with tobramycin at 4 μg/ml for 75 min (FIGS. 19 and 22). The dose utilized, was indicated by the CLSI as the breakpoint of susceptibility to tobramycin. FIGS. 20 and 23 illustrate an assay from another portion of each strain, which was incubated with Meropenem at 0.2 μg/ml for 60 min. FIGS. 21 and 24, illustrate assays from still another portion of both strains which was incubated with tobramycin at 4 μg/ml for 15 min followed by meropenem at 0.2 μg/ml for 60 min, without removing the tobramycin. Still another portion of both strains was maintained without the addition of either antibiotic.
After incubation cells were processed using a variant Micromax technology to visualize the affectation or not of the cell wall based on the release or not of the nucleoids contained inside the bacteria. In the same manner described previously, samples from cells from the culture are immersed in an agarose microgel on a slide and incubated with a specific lysing solution that removes the cell wall only in those bacteria whose peptidoglycan was affected, thus releasing in the microgel the nucleoids contained inside. […] The processed bacteria in microgel are dried, stained with a high sensitive fluorochrome for DNA like SYBR Gold and visualized under fluorescence microscopy.

[3] = tested on: Pseudomonas aeruginosa; experiment: Variant Micromax assay of cell enlargement by ceftazidime after tobramycin (Example 7)
Description: As an example, two strains of Pseudomonas aeruginosa exponentially growing in Mueller-Hinton broth were assayed. These strains were both susceptible to the β-lactam ceftazidime, which inhibits peptidoglycan synthesis. One strain was susceptible and the other resistant to the aminoglycoside tobramycin (an inhibitor of protein synthesis). For the purpose of rapidly distinguishing the susceptible and the resistant strain to tobramycin each strain was subjected to four treatments.
A portion of each strain was incubated with tobramycin at 4 μg/ml (the CLSI breakpoint of susceptibility) for 75 minutes. An assay of this portion is depicted at FIGS. 31 and 34. Another portion of each strain was incubated with ceftazidime at 0.5 μg/ml for 60 minutes. An assay of this portion is depicted at FIGS. 32 and 35. Still another portion of both strains was incubated with tobramycin at 4 μg/ml for 15 minutes followed by ceftazidime at 0.5 μg/ml for 60 minutes, without removing the tobramycin. Assays of these strains can be seen at FIGS. 33 and 36, respectively. A final portion of each strain was not treated with either antibiotic.
After incubation with the antibiotics, cells were processed using a variant Micromax technology to visualize the enlargement or not of the bacteria. Samples from each culture were immersed in an agarose microgel on a slide, dried, stained with a high sensitive fluorochrome for DNA like SYBR Gold and visualized under fluorescence microscopy to visualize cell shape and size.

Compound: NC[C@H]1O[C@H](O[C@H]2[C@H](O)[C@@H](O[C@H]3O[C@H](CO)[C@@H](O)[C@H](N)[C@H]3O)[C@H](N)C[C@@H]2N)[C@H](N)C[C@@H]1O [tobramycin]
- cell enlargement ([1]; tobramycin 4 μg/ml 30 minutes followed by mitomycin C 0.5 μg/ml 60 minutes, tobramycin-resistant strain): appeared enlarged
- bacterial shape and size ([1]; tobramycin alone 4 μg/ml 90 minutes, both strains): does not affect bacterial shape and size
- release of nucleoids (cell wall damage) ([2]; tobramycin-resistant strain): the nucleoids were released
- release of nucleoids (cell wall damage) ([2]; tobramycin-susceptible strain): unchanged, non-lysed bacteria
- cell wall lysis and bacterial shape ([2]; tobramycin alone 4 μg/ml 75 min, both strains): does not result in cell wall lysis
- cell enlargement ([3]; tobramycin 4 μg/ml 15 minutes followed by ceftazidime 0.5 μg/ml 60 minutes, tobramycin-resistant strain): bacteria appeared enlarged
- bacterial shape and size ([3]; tobramycin alone 4 μg/ml 75 minutes, both strains): does not affect the bacterial shape and size
